Experimental data reported in US7067619B2, “Integrin-binding peptides” (La Jolla Cancer Research Foundation, priority 1993, dated 2006).
Bridge positions count the residues as written; N and C are the ends. Ends that are not written are not given here. Peptide text beside a SMILES is read from it.

Experiments:
α5β1 integrin [1] = assay: Inhibition of α5β1-mediated cell attachment to fibronectin; assay type: cell-based, human
Excerpt: (§1) Cell lines expressing different integrins were used to examine peptide inhibition of integrin function. A human melanoma cell line, C8161, a fibroblast cell line, WI-38, and an osteosarcoma cell line, MG-63 (described by Seftor et al., Canc. Res., 53:3411–3415 (1993); Vogel et al., J. Biol. Chem., 265:5934–5937 (1990); and Pytela et al. (1985), supra, respectively, each of which is incorporated herein by reference) attach to fibronectin through α5β1 integrin, as does B2/α27, a CHO cell line transfected with human α5. B2/C1, the control parental CHO line (Bauer et al., J. Cell. Biol. 116:477–487 (1992), which is incorporated herein by reference), attaches via […]. CHO cells C11 and NIH 3T3 cells express the endogenous Chinese hamster and mouse α5β1 integrins, respectively. The human melanoma cells, A375-M, attach to fibronectin through both α5β1 and α4β1 integrins (Mould et al., J. Biol. Chem. 265:4020–4024 (1990), which is incorporated herein by reference). CHO cell line B2/v7 express the αvβ1 integrin (Zhang et al., J. Cell. Biol. 122:235–242 (1993), which is incorporated herein by reference). The vitronectin-binding integrins αvβ1 and αvβ3 were assayed using the cell line HT-29 and IMR-90, respectively (Koivunen et al., J. Biol. Chem. 268: 20205–20210 (1993)).
Cell lines expressing fibronectin-binding integrins were used to determine peptide activities against these integrins in the cell attachment assay described by Ruoslahti et al., Meth. Enzymol., 144:803–831 (1982), which is incorporated herein by reference. Human plasma fibronectin was iodinated as described by Morla and Ruoslahti, J. Cell Biol., 118:421–429 (1992), which is incorporated herein by reference. Vitronectin was obtained from Telios Pharmaceuticals (San Diego, Calif.). […] Peptide was coated on plastic by incubating at 37° C. for 2 hours in phosphate buffered saline containing 0.25% glutaraldehyde to crosslink the peptide. Free binding sites on the plastic were blocked using BSA. Approximately 1×10^5 cells per well were allowed to attach for 1 hour in the presence or absence of competing peptides. Bound cells were quantitated by staining with 0.1% amido black.
Inhibition of cell attachment mediated by either fibronectin- or vitronectin-binding integrins was performed to determine peptide specificity in a biologically relevant system. The assays and cell lines were performed as described above. FIGS. 5 and 6 show the results of cell attachment mediated by the fibronectin binding integrins α5β1 and αvβ1.

αvβ3 integrin [2] = target: T1, αvβ3 integrin (Homo sapiens, UniProt P05106+P06756); assay: Inhibition of αvβ3-mediated attachment of IMR-90 cells to vitronectin; assay type: cell-based; set-up: endogenous in cells; host or cells: IMR-90 cells
Method: FIG. 13—[…] attachment of IMR-90 cells to vitronectin. The cells that bound were determined as described herein.
as §1, with “CHO cell line B2/v7 express the αvβ1 integrin (Zhang et al., J. Cell. Biol. 122:235–242 (1993), which is incorporated herein by reference). The vitronectin-binding integrins αvβ1 and αvβ3 were assayed using the cell line HT-29 and IMR-90, respectively (Koivunen et al., J. Biol. Chem. 268: 20205–20210 (1993)).” left out
Cell lines expressing fibronectin-binding integrins were used to determine peptide activities against these integrins in the cell attachment assay described by Ruoslahti et al., Meth. […] Bound cells were quantitated by staining with 0.1% amido black.

αvβ3 integrin [3] = target: T1, αvβ3 integrin; assay: Inhibition of peptide-displaying phage binding to αvβ3 integrin by synthetic peptides; set-up: The αvβ3, αvβ5 and α5β1 integrins were isolated from human placental extracts; from tissue; host or cells: human placenta
Excerpt: (§2) In addition, most of the phage-binding activity in the αvβ3 preparation was captured into microliter wells coated with antibodies against the αv or β3 subunits as described previously (Koivunen et al., J. Biol. Chem., 268:20205–10 (1993). The αIIbβ3 integrin was isolated from outdated platelets (Pytela et al., Science, 231:1559–1562 (1986)).
(§3) Binding of individual cloned phage to integrins was studied in microliter wells as described in Koivunen et al., J. Cell. Biol., 124:373–380 (1994). Phage binding to α5β1 and αvβ3 were assayed in TBS buffer containing 1% BSA and 1 mM MnCl2 and binding to αvβ5 in the presence of 1 mM CaCl2. Phage that were bound were determined by their ability to infect F-pilus positive K91kan bacteria. Bacteria were grown overnight in microliter wells in the presence of tetracycline and the absorbance indicative of bacterial growth was read at 600 nm with an ELISA plate reader.
The ability of […] [SEQ ID NO:12] and CRGDC [SEQ ID NO:37] containing peptides to inhibit binding of CRGDCL-displaying [SEQ ID NO:7] phage to the microwells coated with αvβ3 integrin also was examined. CRGDCL-displaying [SEQ ID NO:7] phage were added to a well and either cyclic […] [SEQ ID NO:6] or cyclic […] [SEQ ID NO:5] was added to compete for binding. Binding was quantitated as described above.

α5β1 integrin [4] = target: T2, α5β1 integrin (Homo sapiens, UniProt P05556+P08648); assay: Inhibition of peptide-displaying phage binding to α5β1 integrin by synthetic peptides; details: for binding affinity for α5β1: high binding affinity defined as IC50 of 1×10^−7 M or less in a competitive binding assay
T2 construct: The αvβ3, αvβ5 and α5β1 integrins were isolated from human placental extracts; from tissue; host or cells: human placenta
Method: Phage clone containing the RGDGW [SEQ ID NO:9] sequence was incubated for 1 hour in integrin-coated microliter wells in the presence of the competing peptides. After extensive washing, the phage remained bound were determined as described in Example XII.
as §2, §3
Relative affinities of the […] [SEQ ID NO:12] and CRGDC [SEQ ID NO:37] peptides were determined by inhibition of binding of peptide-displaying phage to α5β1 integrin. Peptide-displaying phage were constructed as described by Scott and Smith, Science 249:386–390 (1990) and Example IV. Microwell plates were coated with various integrins as described by Koivunen et al., J. Biol. Chem., 268:20205–10 (1993) and Example II.
The binding of […] [SEQ ID NO:12]-containing peptide ligands to α5β1 integrin was performed as follows. RRETAWA [SEQ ID NO:8]-displaying phage were incubated for 1 hour in the presence of various concentrations of the cyclic peptides containing […] [SEQ ID NO:12] and containing CRGDC [SEQ ID NO:37] in microliter wells coated with the α5β1 integrin. Binding was quantitated by adding K91kan bacteria directly to the wells and growing the bacteria overnight at room temperature (Smith and Scott, Meth. Enzymol., 217:228–257 (1993), which is incorporated herein by reference).
Additional peptide motifs were tested as follows. ELRGDGW-displaying [SEQ ID NO:4] phage were added together with various concentrations of the cyclic peptides containing […] [SEQ ID NO:12] and containing CRGDC [SEQ ID NO:37] into microliter wells coated with the α5β1 integrin, incubated for 1 hour at room temperature and binding to wells was quantitated.

T2 sequence (P08648 42-894 limits assumed): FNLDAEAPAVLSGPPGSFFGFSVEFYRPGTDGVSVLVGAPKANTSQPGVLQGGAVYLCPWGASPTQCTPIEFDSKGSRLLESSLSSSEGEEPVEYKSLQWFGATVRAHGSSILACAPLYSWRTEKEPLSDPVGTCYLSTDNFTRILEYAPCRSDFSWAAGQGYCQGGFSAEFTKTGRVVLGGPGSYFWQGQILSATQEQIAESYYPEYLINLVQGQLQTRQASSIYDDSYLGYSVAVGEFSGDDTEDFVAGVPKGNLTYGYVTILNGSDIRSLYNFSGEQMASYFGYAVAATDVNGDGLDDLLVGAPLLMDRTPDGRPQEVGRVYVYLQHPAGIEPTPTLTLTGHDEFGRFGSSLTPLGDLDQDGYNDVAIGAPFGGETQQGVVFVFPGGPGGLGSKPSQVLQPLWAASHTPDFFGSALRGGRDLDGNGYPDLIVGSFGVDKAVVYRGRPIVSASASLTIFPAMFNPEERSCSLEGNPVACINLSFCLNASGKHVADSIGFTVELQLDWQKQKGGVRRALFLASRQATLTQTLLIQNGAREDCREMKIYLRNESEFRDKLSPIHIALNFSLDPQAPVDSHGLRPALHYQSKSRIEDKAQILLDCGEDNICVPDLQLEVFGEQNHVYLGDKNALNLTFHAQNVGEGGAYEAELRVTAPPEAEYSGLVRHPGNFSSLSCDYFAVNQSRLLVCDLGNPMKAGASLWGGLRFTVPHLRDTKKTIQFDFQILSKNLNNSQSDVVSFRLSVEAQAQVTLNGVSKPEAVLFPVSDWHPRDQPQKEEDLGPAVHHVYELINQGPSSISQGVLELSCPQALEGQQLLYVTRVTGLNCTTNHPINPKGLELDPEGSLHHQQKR
T2 sequence (P08648 895-1049 partner limits assumed): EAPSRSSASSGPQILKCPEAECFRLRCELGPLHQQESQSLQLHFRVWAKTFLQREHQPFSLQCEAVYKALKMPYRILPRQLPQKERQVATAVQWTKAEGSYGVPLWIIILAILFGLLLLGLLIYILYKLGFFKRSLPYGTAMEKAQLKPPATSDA
T2 sequence (P05556 21-798): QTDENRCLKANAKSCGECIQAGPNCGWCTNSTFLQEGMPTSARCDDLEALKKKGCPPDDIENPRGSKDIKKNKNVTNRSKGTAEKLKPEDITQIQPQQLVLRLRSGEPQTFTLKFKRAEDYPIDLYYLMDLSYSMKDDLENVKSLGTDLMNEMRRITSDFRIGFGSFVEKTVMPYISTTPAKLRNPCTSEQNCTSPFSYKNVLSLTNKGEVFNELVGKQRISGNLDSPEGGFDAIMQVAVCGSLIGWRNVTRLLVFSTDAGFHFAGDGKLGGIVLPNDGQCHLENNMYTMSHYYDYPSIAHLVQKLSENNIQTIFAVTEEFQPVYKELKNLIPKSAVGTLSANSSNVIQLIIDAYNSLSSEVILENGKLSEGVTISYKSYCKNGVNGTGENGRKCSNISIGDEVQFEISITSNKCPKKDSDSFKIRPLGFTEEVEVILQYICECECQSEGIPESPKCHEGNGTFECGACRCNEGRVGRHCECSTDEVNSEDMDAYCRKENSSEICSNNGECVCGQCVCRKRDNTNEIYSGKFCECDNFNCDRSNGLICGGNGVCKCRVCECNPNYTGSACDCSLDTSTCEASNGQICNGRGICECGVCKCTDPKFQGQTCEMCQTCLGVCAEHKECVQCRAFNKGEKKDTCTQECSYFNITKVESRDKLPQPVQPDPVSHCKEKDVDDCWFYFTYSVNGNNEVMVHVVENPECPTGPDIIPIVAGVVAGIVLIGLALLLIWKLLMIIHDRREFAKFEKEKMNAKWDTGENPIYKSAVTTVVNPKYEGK
T1 sequence (P06756 31-889 limits assumed): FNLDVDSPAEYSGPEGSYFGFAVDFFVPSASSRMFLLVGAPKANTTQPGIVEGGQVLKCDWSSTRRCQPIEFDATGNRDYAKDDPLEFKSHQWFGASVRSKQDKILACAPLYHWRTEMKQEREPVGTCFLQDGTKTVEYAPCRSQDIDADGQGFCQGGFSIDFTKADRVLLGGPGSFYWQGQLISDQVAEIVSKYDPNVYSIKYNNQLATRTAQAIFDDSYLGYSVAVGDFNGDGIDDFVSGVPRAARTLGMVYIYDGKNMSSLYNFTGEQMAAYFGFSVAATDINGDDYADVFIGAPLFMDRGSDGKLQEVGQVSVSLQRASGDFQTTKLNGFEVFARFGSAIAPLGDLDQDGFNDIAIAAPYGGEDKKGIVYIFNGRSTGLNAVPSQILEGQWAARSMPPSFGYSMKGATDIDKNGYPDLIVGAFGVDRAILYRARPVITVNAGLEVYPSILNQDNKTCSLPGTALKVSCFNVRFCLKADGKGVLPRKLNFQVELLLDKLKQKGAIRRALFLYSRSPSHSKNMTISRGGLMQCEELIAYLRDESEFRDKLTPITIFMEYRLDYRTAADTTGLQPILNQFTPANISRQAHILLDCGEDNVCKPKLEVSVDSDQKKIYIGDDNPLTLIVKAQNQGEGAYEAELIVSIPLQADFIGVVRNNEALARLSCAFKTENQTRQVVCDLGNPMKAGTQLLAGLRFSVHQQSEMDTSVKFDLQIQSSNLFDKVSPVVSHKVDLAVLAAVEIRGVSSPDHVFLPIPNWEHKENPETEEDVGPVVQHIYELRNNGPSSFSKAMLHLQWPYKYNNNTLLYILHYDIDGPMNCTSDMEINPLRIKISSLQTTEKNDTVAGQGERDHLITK
T1 sequence (P06756 891-1048 partner limits assumed): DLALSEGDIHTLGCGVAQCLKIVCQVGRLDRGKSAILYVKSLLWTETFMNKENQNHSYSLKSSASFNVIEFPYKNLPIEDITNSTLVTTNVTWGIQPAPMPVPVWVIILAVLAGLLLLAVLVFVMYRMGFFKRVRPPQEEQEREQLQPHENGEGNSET
T1 sequence (P05106 27-788): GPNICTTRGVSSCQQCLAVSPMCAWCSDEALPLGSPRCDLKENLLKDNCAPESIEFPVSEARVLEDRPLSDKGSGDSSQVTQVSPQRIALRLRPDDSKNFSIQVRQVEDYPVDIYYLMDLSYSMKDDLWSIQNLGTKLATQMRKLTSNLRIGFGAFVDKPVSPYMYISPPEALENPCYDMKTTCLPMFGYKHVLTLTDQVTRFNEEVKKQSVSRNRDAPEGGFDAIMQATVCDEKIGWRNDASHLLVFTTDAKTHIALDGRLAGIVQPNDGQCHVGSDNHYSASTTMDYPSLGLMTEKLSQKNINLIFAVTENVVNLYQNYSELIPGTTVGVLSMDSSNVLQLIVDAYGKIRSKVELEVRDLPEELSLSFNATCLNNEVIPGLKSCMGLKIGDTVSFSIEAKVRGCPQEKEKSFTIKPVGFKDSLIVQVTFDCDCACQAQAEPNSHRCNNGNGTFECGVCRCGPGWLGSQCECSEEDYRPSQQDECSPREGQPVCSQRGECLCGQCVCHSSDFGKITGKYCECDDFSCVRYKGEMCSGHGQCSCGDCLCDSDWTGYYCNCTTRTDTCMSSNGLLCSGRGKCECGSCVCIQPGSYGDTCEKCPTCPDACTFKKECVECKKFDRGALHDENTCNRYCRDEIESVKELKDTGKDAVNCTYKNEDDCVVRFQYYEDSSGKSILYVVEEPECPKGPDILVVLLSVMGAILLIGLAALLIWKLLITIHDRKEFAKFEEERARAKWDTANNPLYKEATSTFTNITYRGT

C[C@H](N)C(=O)N[C@H]1CSSC[C@@H](C(=O)NCC(=O)O)NC(=O)[C@H](Cc2ccccc2)NC(=O)[C@@H]2CSSC[C@H](NC(=O)[C@H](CC(=O)O)NC1=O)C(=O)N[C@@H](CCCNC(=N)N)C(=O)NCC(=O)N[C@@H](CC(=O)O)C(=O)N2 (H-ACDCRGDCFCG-OH; disulfide 2-10, 4-8)
activity toward α5β1 compared to *CRGDC* (α5β1 integrin [1]; cell attachment to fibronectin): significantly decreased activity | activity toward α5β1 compared to linear GRGDSP (α5β1 integrin [1]; cell attachment to fibronectin): only slightly better | effectiveness relative to *CRGDC* in IMR-90 attachment to vitronectin (αvβ3 integrin [2]; more effective than *CRGDC*): 20 fold | inhibition of phage binding to αvβ3 relative to *CRGDC* (αvβ3 integrin [3]; better than *CRGDC*): 5 fold

A*CPSRLDSPC*G (ACPSRLDSPCG; disulfide 2-10 (inferred))
inhibition of RGD phage binding to α5β1 (α5β1 integrin [4]; RGDGW phage, FIG. 9): no inhibition | concentration at which inhibitory activity was shown (αvβ3 integrin [2]; vitronectin): higher than 1 mM | affinity for αvβ3 (αvβ3 integrin [3]; phage binding experiments): low | selectivity towards the αvβ3 integrin (αvβ3 integrin [3]; phage binding experiments): partial selectivity

GACRRETAWACGA
inhibition of cell attachment to a 110 kDa fragment of fibronectin (α5β1 integrin [1]; 110 kDa fragment containing the cell attachment domain): inhibited | inhibition of attachment of A375-M cells to fibronectin (α5β1 integrin [1]; A375-M cells (also express α4β1)): only partially inhibited | efficiency at inhibiting binding to α5β1 compared with cyclic CRGDCL peptide (α5β1 integrin [1]; B2/α27 cells, fibronectin, FIG. 5): more efficient | binding activity following reduction of the disulfide bond and alkylation of the cysteine residues (α5β1 integrin [1]; linearized vs cyclic peptide): greatly decreased | reduction of activity after reduction and alkylation of the disulfide bond (α5β1 integrin [1]; linearized vs cyclic peptide): about 50 × | inhibition of binding of ELRGDGW-displaying phage to α5β1 integrin (α5β1 integrin [4]; ELRGDGW-displaying phage, CRRETAWAC compared with CRGDC, FIG. 2): approximately the same degree | efficiency of inhibition of RRETAWA-displaying phage binding to α5β1 relative to CRGDC containing peptides (α5β1 integrin [4]; RRETAWA-displaying phage, comparator CRGDC, FIG. 4): at least 10 times | binding affinity for α5β1 (α5β1 integrin [4]; listed as CRRETAWAC): high binding affinity | binding affinity for α5β1 (α5β1 integrin [4]; listed as GA*CRRETAWAC*GA): high affinity | inhibition of binding of CRGDCL-displaying phage to integrin-coated wells (αvβ3 integrin [3]; CRGDCL-displaying phage, αvβ3-coated wells, FIG. 3 (result sentence prints α5β1)): ineffective
